PMC3137686 (Synapse (New York, N.Y.), 2011)
“Also recorded” adds a separate entry of the source.

What was measured:
[1] = system: brain 5-HT axonal markers; settings: intrastriatal administration; ref Jones et al. 2005; cited from earlier work
[2] = system: brain serotonin (5-HT) neurons; settings: ref Paris and Cunningham 1992, Esteban et al. 2001, Escobedo et al. 2005; cited from earlier work
[3] = system: brain serotonin (5-HT) neurons; assay: Regional brain 5-HT and 5-HIAA concentrations one week after drug treatment; type: in vivo, rat; settings: one week after single oral dose of 20 mg/kg MDMA
[4] = Rectal; type: in vivo, rat
[5] = system: cytochrome P450 (CYP450); settings: ref Broly et al. 1990; Ramamoorthy et al. 2002; Heydari et al. 2004; cited from earlier work

In the case of CNC(C)Cc1cc(O)c(O)c(SC[C@H](NC(C)=O)C(=O)O)c1 (stereo partly shown) [5-NAC-HHMA, 5-N-acetylcystein-S-yl-HHMA], the “lasting depletions of indoles in the rat brain” value [1] is listed as “produces lasting depletions of indoles”.

In the case of CNC(C)Cc1ccc2c(c1)OCO2 (stereo not shown) [MDMA, 3,4-Methylenedioxymethamphetamine], the “toxic effects after central administration” value [2] is listed as “does not produce toxic effects” and the “5-HT and 5-HIAA concentrations across brain regions after MDMA” value [3] is listed as “lasting effects”.

In the case of COc1ccc2c(c1)[C@]13CCCC[C@@H]1[C@H](C2)N(C)CC3 [DXM, dextromethorphan], the “effect of DXM on body (core) temperature” value ([4]; DXM 30 mg/kg i.p. x3, alone or in combination with MDMA 20 mg/kg p.o.) is reported as “did not significantly alter; also recorded: no significant effect”, the “body temperature after combination of MDMA and DXM” value ([4]; MDMA 20 mg/kg p.o. + DXM 30 mg/kg i.p. x3) is reported as “longer lasting decrease in temperature, which was followed by an increase in core temperature” and the “peak temperatures, MDMA/DXM group vs MDMA/Saline group” value ([4]; MDMA 20 mg/kg p.o. + DXM 30 mg/kg i.p. x3, difference did not achieve statistical significance) is reported as “lower”. The “inhibition of CYP450-mediated metabolism of MDMA to HHMA” value [5] was “potent competitive inhibitor”.
